Where two headings read alike, the source gives them in different places.
Tests used:
[1] = Plasma pharmacokinetics (non-compartmental analysis), healthy Wistar rats; assay type: in vivo; details: NCA, mean ± SD; for Fabs, Absolute bioavailability: 100 mg/kg; for AUC(0-inf): n = 6, read-out: AUC0−∞, Total Area Under the Curve; for MRT: n = 6, read-out: MRT, Mean Residence Time; for k el: n = 6, read-out: ke, elimination rate constant (converted); for half-life: n = 6, read-out: t1/2, half-life (converted)
Experimental: A bioanalytical methodology was developed and validated to quantify LIN in rat plasma using high-performance liquid chromatography with UV detection (HPLC/UV), according to RDC 27/2012 of the National Agency of Sanitary Vigilance, Brazil. Plasma aliquots (100 µL) were extracted with 300 µL of acetonitrile.
The samples were vortexed for 3 min and centrifuged at 13,000× g for 15 min, at 8 °C. The supernatant aliquots were injected into an HPLC instrument (PerkinElmer, Waltham, MA, USA), Flexar™ HPLC model), using reversed-phase column C18 (Nucleosil column 250 mm × 4.6 mm internal diameter, particle size 5 μm (Macherey—Nagel, Versmold, Germany) protected by a guard column with the same material (Hypersil BDS, 10 mm, particle size 5 μm (Thermo Scientific, Waltham, MA, USA) at a temperature of 50 ± 1 °C during the analysis.
The mobile phase was composed of water: acetonitrile (70:30, v/v), at a flow rate of 1 mL/min. LIN was detected at a wavelength of 210 nm, and the peak area was used for the quantitation of samples. The method was precise, sensitive and accurate within the concentration range of 5–100 ng/mL. All samples quantified were between the concentration range, the higher concentrations were diluted to reach the higher linear concentration.
Plasma pharmacokinetic parameters were estimated after administration of 50 mg/kg and 100 mg/kg, i.v. and orally, respectively, of LIN; 100 mg/kg orally of LIN/β-CD, in healthy Wistar rats; and 50 mg/kg of LIN/β-CD, in SHRs.
The animals received the drugs at the above doses through the caudal lateral vein or by oral gavage. Six animals were evaluated per group, as stated in the literature. After administration of the compounds, approximately 200 µL of blood samples were collected from the caudal lateral vein at 0.083, 0.25, 0.5, 1, 1.5, 2, 4, 6, and 8 h. Plasma was separated by centrifugation (6800× g at 8 ± 1 °C for 15 min) and stored at −20 °C until analysis. Non-compartmental analysis (NCA) of the individual concentration-time profiles was performed using Excel® 2016 software (Microsoft Corporation, Redmond, […], USA).
Calculated pharmacokinetic parameters included: the elimination rate constant (ke), absorption rate constant (ka), area under the concentration-time curve from 0 h to infinity (AUC0−∞), clearance (Cltot), half-life (t1/2), the volume of distribution (V), mean residence time (MRT), mean absorption time (MAT), absolute bioavailability (Fabs) and relative bioavailability (Frel). All the pharmacokinetic (PK) parameters were estimated individually aby analyzing the individual PK profiles. Results were expressed as the mean ± SD, and the PK parameters were compared by ANOVA followed by Student’s t-test (α = 0.05).

[2] = Population PK model, intravenous administration in healthy rats; assay type: in vivo, Wistar rats; details: i.v., 2-compartment model, linear elimination, combined error
Experimental: (§1) Population pharmacokinetic analysis was performed using Monolix® Suite 2019R1 software (Lixoft®, Antony, France). Structural models evaluated included 1- and 2-compartment models, first-order absorption, and linear elimination. Different error models were analyzed to explain the variability of the residual error, including a constant, proportional, and combined error model. […] The models were parameterized in V, ka, ke, and distribution constants (k1-2 and k2-1). The parameters were estimated with a stochastic approximation. The object function value (OFV), represented as −2 times the log-likelihood (−2LL) and Akaike Information Criterion (AIC), was used to compare the models.
(§2) The base model for i.v. and oral administration has been established. For oral linalool, after establishing the base model, new models adding the categorical covariates investigated in the study (complexed linalool administered in healthy rats and complexed linalool administered in SHRs) were developed. The visual analysis of the graphs and statistical tests (Pearson’s correlation and ANOVA) were carried out to verify if there is any relationship between the random effects of the parameters (h) and the covariables that could contribute to improving the model.
(§3) The graphs that correlate the plasma concentrations with the predicted individual or population plasma concentrations were evaluated by individual waste distribution charts (IWRES). Also, to evaluate whether simulations performed from the developed model are capable of reproducing the median and the variability of the observed data, a graph was generated to verify the predicted data visual predictive check (VPC).

[3] = Population PK model with covariates, oral administration data; assay type: in vivo, Wistar rats and SHR
Experimental: as §1, §2, §3

[4] = tested on: spontaneously hypertensive rats (SHR); test: Acute intravenous effects on blood pressure and heart rate; assay type: in vivo, rat; details: i.v. 50 mg/kg, n = 5, mean ± S.E.M.
Source text: This protocol aimed to evaluate the acute hemodynamic effects of LIN, administered intravenously (i.v.), on blood pressure (BP) and heart rate (HR) in spontaneously hypertensive rats (SHR) and normotensive Wistar rats. Animals were anesthetized with ketamine and xylazine (Cristália), and following trichotomy of the iliac region, polyethylene (PE) catheters were implanted into the femoral artery and vein.
The catheters consisted of PE-10 segments (internal/external diameter: 0.28/0.61 mm) connected to PE-50 catheter (internal/external diameter: 0.58/0.96 mm). To prevent catheter blockage during the hemodynamic recordings, the arterial and venous catheters were implanted pre-filled with a sterile saline–heparin solution (heparin: 100 UI). […]
Following a 24 h recovery period, baseline physiological parameters, including systolic BP (SBP), diastolic BP (DBP), and heart rate, were recorded. BP was continuously monitored via the arterial catheter connected to a pressure transducer (ADInstruments, São Paulo, Brazil). The signal was amplified and digitized at 1 kHz using a PowerLab 8/35 data acquisition system and analyzed with LabChart 8 Pro software (ADInstruments, São Paulo, Brazil). Once cardiovascular parameters stabilized, SBP, DBP, and HR were recorded as baseline control values. […]

[5] = tested on: spontaneously hypertensive rats (SHR); test: Acute oral (orogastric) effects on blood pressure and heart rate over 6 h; assay type: in vivo, rat; details: oral 50 mg/kg, monitored 6 h, vs vehicle
[6] = tested on: spontaneously hypertensive rats (SHR); test: Chronic 60-day oral treatment: blood pressure and heart rate by tail-cuff plethysmography; assay type: in vivo, rat; details: 50 mg/kg/day p.o., 60 days, vs SHR vehicle
Experimental: (§4) Before starting any treatment, animals were conditioned for one week to minimize stress-related variability in BP and HR measurements. SHRs were randomly assigned to three experimental groups: Group 1 (SHR + Vehicle): Received saline solution (0.1 mL/100 g, p.o.); Group 2 (SHR + LIN): Treated with (-)-linalool (50 mg/kg/day, p.o.); and Group 3 (SHR + LIN/β-CD): Treated with the LIN/β-cyclodextrin inclusion complex (50 mg/kg/day, p.o.). An additional control group of normotensive Wistar rats (Group 4: Wistar + Vehicle) received saline under the same dosing protocol to serve as a baseline.
All treatments were administered orally once daily (between 08:00 and 12:00 h) for a period of 60 days, and cardiovascular assessments were performed with all groups in the afternoon (between 12:00 and 18:00 h), approximately 60 min post-administration. BP and heart rate were measured every five days throughout the treatment period using the tail-cuff plethysmography method (Insight® V2.11, São Paulo, Brazil). Systolic and diastolic blood pressures were measured in triplicate for each animal, and the average of these values was used for data analysis and graphical representation.

[7] = Body weight progression during 60-day treatment; assay type: in vivo, rat; details: 50 mg/kg/day p.o., 60 days
Experimental: as §4

[8] = tested on: isolated superior mesenteric artery rings from SHRs; test: Vascular reactivity of isolated superior mesenteric artery rings after 60-day treatment; assay type: in vivo, rat; details: mesenteric rings from SHR treated 50 mg/kg/day 60 days, mean ± S.E.M.
[9] = tested on: spontaneously hypertensive rats (SHR); test: Cardiac mass index after 60-day treatment; assay type: in vivo, rat; details: 50 mg/kg/day p.o., 60 days, vs SHR vehicle
Experimental: (§5) After 60 days of treatment period, Wistar and SHRs were euthanized in a carbon dioxide (CO2) chamber. Hearts were carefully excised, and surrounding adipose tissue and vascular structures were meticulously removed. Each heart was weighed using an analytical balance, and the cardiac mass index was calculated by normalizing the heart weight to the total body weight of the animal. A transverse cut was then made, and the left and right ventricles, and thoracic aortas. Both tissues were fixed in 4% formaldehyde for histological processing.

[10] = tested on: spontaneously hypertensive rats (SHR); test: Histology of left ventricle and aorta (HE, Picrosirius Red) after 60-day treatment; assay type: in vivo, rat; details: 50 mg/kg/day p.o., 60 days
Experimental: as §5
The hearts and thoracic aortas were fixed in 4% buffered formaldehyde (0.1 M sodium phosphate buffer, pH 7.4), followed by washing in distilled water. Tissue dehydration was carried out in a graded ethanol series of increasing concentrations, ending with absolute ethanol. Samples were then cleared in xylene, embedded in paraffin, and sectioned using a microtome (RM2125RT, Leica®, Wetzlar, Germany) to obtain serial 5 μm sections. […]
Histological evaluation was conducted in a blinded manner. […] Parameters assessed included the presence or absence of inflammatory infiltrates, hemorrhagic areas, and structural alterations such as decreased cardiomyocyte volume, disruption of muscle fiber continuity, loss of transverse striations, sarcoplasmic granulation, contraction bands, and nuclear changes indicative of tissue injury. […]

[11] = set-up: method as in PMID 16596022; details: cited from earlier work
[12] = 2-compartment model, first-order absorption, covariates Complex and Complex SHR in V and k12

## C=CC(C)(O)CCC=C(C)C (stereo not shown) [LIN, 3,7-dimethyl-1,6-octadien-3-ol]
[1]; oral 100 mg/kg, n = 6
  CL, clearance: 84.3 ± 37.8 mL/min/kg
  MAT, Mean absorption time: 4.69 ± 1.50 h
  Vd, Volume of Distribution: 16.29 ± 10.73 L/kg
  ka, absorption rate constant: 0.23 ± 0.07 h⁻¹
[1]; oral 100 mg/kg, n = 6, listed as LIN Free
  Fabs, Absolute bioavailability: 0.003 ± 0.001%
[1]; oral 100 mg/kg, n = 6, listed as free LIN
  Fabs, Absolute bioavailability: approximately 0.003%
[1]; rat, plasma, iv, i.v. 50 mg/kg
  AUC(0-inf): 25300 ± 18600 ng·h/mL
  MRT: 8.75 ± 4.78 h
  k el: 3.61e-05 s⁻¹
  half-life: 6.6 ± 4.04 h
[1]; rat, plasma, iv, i.v. 50 mg/kg, n = 6, read-out: CL, clearance (converted)
  clearance: 50.5 mL/min/kg
[1]; rat, plasma, iv, i.v. 50 mg/kg, n = 6, read-out: Vd, Volume of Distribution
  Vd: 25.2 ± 10.4 L/kg
[1]; rat, plasma, oral 100 mg/kg
  AUC(0-inf): 40 ± 20 ng·h/mL
  MRT: 1.97 ± 0.65 h
  k el: 2.5e-05 s⁻¹
  half-life: 8.64 ± 4.44 h
[2]; Wistar, rat, plasma, iv, 50 mg/kg, read-out: V, volume of distribution (population estimate)
  Vd: 22.4 L
[2]; Wistar, rat, plasma, iv, 50 mg/kg, read-out: ke, first-order elimination rate (population estimate) (converted)
  k el: 0.000101 s⁻¹
[2]
  k12, distribution constant (population estimate): 0.461 h⁻¹
  k21, distribution constant (population estimate): 1.05 h⁻¹
[3]; [12]
  V, volume of distribution (population estimate): 15.28 L
  k21, distribution microconstant (population estimate): 0.0711 h⁻¹
  ka, absorption rate constant (population estimate): 0.226 h⁻¹
[3]; Wistar and SHR, rat, plasma, 2-compartment model, first-order absorption, covariates Complex and Complex SHR in V and k12, read-out: ke, first-order rate elimination (population estimate) (converted)
  k el: 4.53e-05 s⁻¹
[3]; final model with covariates
  V (typical population parameter, as given in text): 15.28 L/kg
[4]
  %HR, percent change in heart rate relative to baseline: −54.54 ± 4.84%
  %MAP, percent change in mean arterial pressure relative to baseline: −56.64 ± 5.05%
[5]
  Effect on blood pressure after oral administration: failed to produce any significant antihypertensive effect
[6]
  Effect on arterial pressure, chronic treatment: significantly reduced arterial pressure
[7]
  Body weight progression: no significant changes
[8]; Phe 10^−10 to 10^−5 M, expressed as percentage of KCl 60 mM contraction, in %
  Emax of contractile response to phenylephrine: 146.72 ± 12.34
[8]; SNP 10^−13 to 10^−5 M, percentage of Phe-induced contraction, in %
  Emax of endothelium-independent relaxation to sodium nitroprusside: −121.04 ± 10.45
[8]; in % (unit assumed)
  Emax of endothelium-dependent vasorelaxation to acetylcholine: −70.52 ± 6.80
[9]
  Cardiac mass index (heart weight / body weight): not observed
[10]; aorta
  Aortic histology: no signs of vascular remodeling
[10]; left ventricle
  Myocardial histology (hematoxylin-eosin): preserved myocardial morphology
[11]
  LogP: ~ 3.3
